± gives the uncertainty stated by the source.
Assay: xn = mol fraction of the nth substance listed

CCCCOCCOCCOCCO + O
viscosity [mPa·s], 101 kPa
Details | 293.15 K | 303.15 K | 313.15 K | 323.15 K
x1 = 0.009612 | 1.536 ± 0.016 | 1.175 ± 0.012 | 0.9391 ± 0.0093 | 0.7657 ± 0.0075
x1 = 0.02136 | 2.342 ± 0.021 | 1.741 ± 0.015 | 1.356 ± 0.012 | 1.094 ± 0.009
x1 = 0.03602 | 3.496 ± 0.028 | 2.526 ± 0.02 | 1.935 ± 0.015 | 1.519 ± 0.012
x1 = 0.05509 | 5.103 ± 0.036 | 3.614 ± 0.026 | 2.685 ± 0.019 | 2.137 ± 0.015
x1 = 0.08023 | 7.018 ± 0.045 | 4.832 ± 0.032 | 3.562 ± 0.024 | 2.692 ± 0.018
x1 = 0.1156 | 9.156 ± 0.055 | 6.189 ± 0.039 | 4.476 ± 0.029 | 3.293 ± 0.022
x1 = 0.1685 | 11.21 ± 0.07 | 7.424 ± 0.045 | 5.289 ± 0.034 | 3.913 ± 0.025
x1 = 0.2571 | 12.63 ± 0.07 | 8.311 ± 0.05 | 5.912 ± 0.037 | 4.406 ± 0.028
x1 = 0.3308 | 12.68 ± 0.07 | 8.439 ± 0.051 | 6.038 ± 0.038 | 4.477 ± 0.029
x1 = 0.4398 | 12.35 ± 0.07 | 8.238 ± 0.05 | 5.926 ± 0.037 | 4.406 ± 0.028
x1 = 0.5322 | 11.78 ± 0.07 | 7.929 ± 0.048 | 5.747 ± 0.036 | 4.329 ± 0.028
x1 = 0.5991 | 11.36 ± 0.07 | 7.685 ± 0.047 | 5.612 ± 0.035 | 4.257 ± 0.027
x1 = 0.7291 | 10.51 ± 0.06 | 7.271 ± 0.044 | 5.407 ± 0.034 | 4.147 ± 0.027
x1 = 0.8068 | 10.13 ± 0.06 | 7.083 ± 0.043 | 5.264 ± 0.033 | 4.088 ± 0.026
x1 = 0.8905 | 9.778 ± 0.058 | 6.856 ± 0.042 | 5.143 ± 0.033 | 3.936 ± 0.025

CCCC[NH2+]CCO.O=C([O-])c1ccccc1O + O
100 kPa, x2 = 0.142
Details | viscosity [mPa·s]
298 K | 876 ± 43
303 K | 582.8 ± 27
313 K | 275.5 ± 11
323 K | 145 ± 5.4

C[NH+](C)CCO.O=C([O-])CC(O)C(=O)O (stereo not given) + O
101 kPa, x2 = 0.89
Details | viscosity [mPa·s]
298 K | 18.3
313 K | 10.3

N + O
Details | viscosity [mPa·s]
293.15 K, 100 kPa, x1 = 0.1035 | 1.166 ± 0.17
293.15 K, 101 kPa, x1 = 0.0111 | 1.025 ± 0.042
303 K, 100 kPa, x1 = 0.053 | 0.86 ± 0.04
303 K, 100 kPa, x1 = 0.105 | 0.92 ± 0.04
303 K, 100 kPa, x1 = 0.157 | 0.97 ± 0.04
303 K, 100 kPa, x1 = 0.209 | 1 ± 0.04
303.15 K, 100 kPa, x1 = 0.05336 | 0.838 ± 0.13
303.15 K, 100 kPa, x1 = 0.1035 | 0.994 ± 0.15
313 K, 100 kPa, x1 = 0.053 | 0.69 ± 0.03
313 K, 100 kPa, x1 = 0.105 | 0.72 ± 0.03
313 K, 100 kPa, x1 = 0.157 | 0.75 ± 0.03
313 K, 100 kPa, x1 = 0.209 | 0.79 ± 0.03
313.15 K, 100 kPa, x1 = 0.05336 | 0.666 ± 0.1
313.15 K, 100 kPa, x1 = 0.1035 | 0.833 ± 0.12

N[C@@H](Cc1c[nH]cn1)C(=O)[O-].[K+] + O
viscosity [mPa·s], 101.3 kPa
Details | 293.15 K | 298.15 K | 303.15 K | 308.15 K | 313.15 K | 318.15 K | 323.15 K
x1 = 0.00475 | 1.09 ± 0.11 | 0.9617 ± 0.097 | 0.8629 ± 0.087 | 0.7803 ± 0.078 | 0.7087 ± 0.071 | 0.648 ± 0.065 | 0.5955 ± 0.06
x1 = 0.00983 | 1.242 ± 0.12 | 1.093 ± 0.11 | 0.9797 ± 0.098 | 0.8847 ± 0.089 | 0.8025 ± 0.081 | 0.7344 ± 0.074 | 0.6734 ± 0.068
x1 = 0.0145 | 1.421 ± 0.14 | 1.252 ± 0.13 | 1.119 ± 0.11 | 1.007 ± 0.1 | 0.9131 ± 0.092 | 0.8323 ± 0.083 | 0.7621 ± 0.076
x1 = 0.02037 | 1.662 ± 0.17 | 1.457 ± 0.15 | 1.299 ± 0.13 | 1.167 ± 0.12 | 1.053 ± 0.11 | 0.9568 ± 0.096 | 0.8736 ± 0.088
x1 = 0.03224 | 2.28 ± 0.23 | 2.002 ± 0.2 | 1.768 ± 0.18 | 1.578 ± 0.16 | 1.417 ± 0.14 | 1.279 ± 0.13 | 1.164 ± 0.12
x1 = 0.04399 | 3.048 ± 0.31 | 2.632 ± 0.26 | 2.315 ± 0.23 | 2.049 ± 0.21 | 1.828 ± 0.18 | 1.641 ± 0.16 | 1.484 ± 0.15

O=c1ccn([C@@H]2O[C@H](CO)C(O)C2O)c(=O)[nH]1 (stereo not given in full) + O
viscosity [mPa·s], 101.3 kPa
Details | 293.15 K | 298.15 K | 303.15 K | 308.15 K | 313.15 K | 318.15 K
x1 = 0.0001846 | – | 0.895 ± 0.025 | – | 0.723 ± 0.024 | – | 0.599 ± 0.024
x1 = 0.0002557 | – | 0.897 ± 0.025 | – | 0.724 ± 0.024 | – | 0.601 ± 0.024
x1 = 0.00027 | 1.006 ± 0.041 | 0.895 ± 0.041 | 0.807 ± 0.041 | 0.738 ± 0.04 | 0.623 ± 0.04 | –
x1 = 0.000318 | – | 0.898 ± 0.025 | – | 0.726 ± 0.024 | – | 0.602 ± 0.024
x1 = 0.000355 | 1.008 ± 0.041 | 0.897 ± 0.041 | 0.809 ± 0.041 | 0.74 ± 0.04 | 0.625 ± 0.04 | –
x1 = 0.0003955 | – | 0.9 ± 0.025 | – | 0.727 ± 0.024 | – | 0.603 ± 0.024
x1 = 0.000448 | 1.01 ± 0.041 | 0.899 ± 0.041 | 0.811 ± 0.041 | 0.742 ± 0.04 | 0.627 ± 0.04 | –
x1 = 0.0005076 | – | 0.902 ± 0.025 | – | 0.729 ± 0.024 | – | 0.605 ± 0.024
x1 = 0.000533 | 1.012 ± 0.041 | 0.901 ± 0.041 | 0.813 ± 0.041 | 0.744 ± 0.04 | 0.628 ± 0.04 | –
x1 = 0.0005591 | – | 0.904 ± 0.025 | – | 0.731 ± 0.025 | – | 0.606 ± 0.024
x1 = 0.00063 | 1.014 ± 0.041 | 0.903 ± 0.041 | 0.815 ± 0.041 | 0.746 ± 0.04 | 0.63 ± 0.04 | –
x1 = 0.00072 | 1.016 ± 0.041 | 0.905 ± 0.041 | 0.817 ± 0.041 | 0.748 ± 0.041 | 0.632 ± 0.04 | –
